From patent US20160361330A1 (priority 2014, published 2016)
“And” between values parts separate entries of the source, which are not always exact repeats. Identical values can stand only once. Like-named read-outs stand apart in the source and are kept apart here.

Experiments:
[1] = system: EBOV-GFP (Ebola virus expressing the GFP reporter gene); experiment: microbe, parasite or virus in culture; format: cell-based; conditions: read-out: EC50 (nM) Reporter Virus EBOV-GFP HMVEC-TERT
[2] = system: EBOV-GFP (Ebola virus expressing the GFP reporter gene); experiment: microbe, parasite or virus in culture; format: cell-based; conditions: Zaire ebolavirus, Huh-7, read-out: EC50 (nM) Reporter Virus EBOV-GFP Huh-7
[3] = system: ebolavirus (EBOV) strain Zaire; experiment: organism not typed; format: cell-based, Ebola virus; conditions: read-out: EC50 (nM) Antigen expression (high content imaging) Ebola Hela
[4] = system: ebolavirus (EBOV) strain Zaire; experiment: organism not typed; format: cell-based, Ebola virus; conditions: read-out: EC50 (nM) Antigen expression (high content imaging) Ebola Macrophage
[5] = system: EBOV-Luc (Ebola virus expressing the luciferase reporter gene); experiment: microbe, parasite or virus in culture; format: cell-based; conditions: Zaire ebolavirus, Huh-7, read-out: EC50 (nM) Reporter Virus EVOV-Luc Huh-7
[6] = system: MARV-GFP (Marburg virus expressing the GFP reporter gene); experiment: organism not typed; format: cell-based; conditions: Huh-7, read-out: EC50 (nM) Reporter Virus MARV-GFP Huh-7
[7] = system: NiV GFP (Nipah virus expressing the GFP reporter gene); experiment: microbe, parasite or virus in culture; format: cell-based; conditions: Henipavirus nipahense, read-out: EC50 (nM) Reporter Virus NiV GFP HMVEC-TERT
[8] = system: NiV-Luc (Nipah virus expressing the luciferase reporter gene); experiment: microbe, parasite or virus in culture; format: cell-based; conditions: Henipavirus nipahense, read-out: EC50 (nM) Reporter Virus NiV Luc HMVEC-TERT
[9] = system: NiV (Nipah virus); experiment: microbe, parasite or virus in culture; format: cell-based; conditions: Henipavirus nipahense, HeLa, read-out: EC50 (nM) CPE NiV Hela
[10] = system: NiV (Nipah virus); experiment: microbe, parasite or virus in culture; format: cell-based; conditions: Henipavirus nipahense, HeLa, read-out: EC50 (nM) Yield NiV Hela
[11] = system: Ebola virus (EBOV); experiment: microbe, parasite or virus in culture; format: cell-based; conditions: Zaire ebolavirus, Huh-7, read-out: EC50 (nM) RNA Ebola Huh-7
[12] = system: Ebola virus (EBOV); experiment: microbe, parasite or virus in culture; format: cell-based; conditions: Zaire ebolavirus, Huh-7, read-out: EC50 (nM) Yield Ebola Huh-7

| SMILES | EC50 ([1]; Zaire ebolavirus) | EC50 ([3]; HeLa) | EC50 ([4]; Macrophage) | further results |
| --- | --- | --- | --- | --- |
| CCC(CC)COC(=O)[C@H](C)N[P@@](=O)(OC[C@H]1O[C@@](C#N)(c2ccc3c(N)ncnn23)[C@H](O)[C@@H]1O)Oc1ccccc1 (single isomer, unassigned) [(R)-Diastereomer of Compound 9] | 62 nM | 210 nM | 112 nM | EC50 [2]: 70 nM |
| CCC(CC)COC(=O)[C@H](C)N[P@](=O)(OC[C@H]1O[C@@](C#N)(c2ccc3c(N)ncnn23)[C@H](O)[C@@H]1O)Oc1ccccc1 (single isomer, unassigned) [(S)-Diastereomer of Compound 9 (Compound 32)] | 40 nM | 100 nM | 87 nM | EC50 [2]: 81 nM |
| CC(C)OC(=O)[C@H](C)NP(=O)(OC[C@H]1O[C@@](C#N)(c2ccc3c(N)ncnn23)[C@H](O)[C@@H]1O)Oc1ccccc1 (stereo in doubt) [Compound 23, (S)-isopropyl 2-(((R)-(((2R,3S,4R,5R)-5-(4-aminopyrrolo[2,1-f][1,2,4]triazin-7-yl)-5-cyano-3,4-dihydroxytetrahydrofuran-2-yl)methoxy)(phenoxy)phosphoryl)amino)propanoate] | 458 nM | 1650 nM | 243 nM | EC50 [3]: 1840 nM; EC50 [4]: 350 nM and 297 nM |
| N#C[C@@]1(c2ccc3c(N)ncnn23)O[C@H](CO)[C@@H](O)[C@H]1O [Compound 1, (2R, 3R, 4S, 5R)-2-(4-aminopyrrolo[1,2-f][1,2,4]triazin-7-yl)-3,4-dihydroxy-5-(hydroxymethyl)tetrahydrofuran-2-carbonitrile] | 771 nM | > 20000 nM | > 20000 nM | EC50 [2]: 1490 nM; EC50 [5]: 3130 nM; EC50 [6]: 1730 nM; EC50 [7]: 13400 nM; EC50 [8]: 3500 nM; EC50 [9]: 1480 nM; EC50 [10]: 1000 nM |
| CCC(CC)COC(=O)[C@H](C)NP(=O)(OC[C@H]1O[C@@](C#N)(c2ccc3c(N)ncnn23)[C@H](O)[C@@H]1O)Oc1ccccc1 (stereo partly drawn) [Compound 9, (2S)-2-ethylbutyl 2-(((((2R,3S,4R,5R)-5-(4-aminopyrrolo[2,1-f][1,2,4]triazin-7-yl)-5-cyano-3,4-dihydroxytetrahydrofuran-2-yl)methoxy)(phenoxy)phosphoryl)amino) propanoate] |  | 290 nM |  | EC50 [2]: 90 nM; EC50 [11]: 1 nM; EC50 [12]: 1030 nM; EC50 [3]: 270 nM; EC50 [4]: 501 nM; EC50 [7]: 60 nM; EC50 [8]: 30 nM |
| CCOC(=O)[C@H](C)NP(=O)(OC[C@H]1O[C@@](C#N)(c2ccc3c(N)ncnn23)[C@H](O)[C@@H]1O)Oc1ccccc1 (stereo partly drawn) [Compound 10, (2S)-ethyl 2-(((((2R,3S,4R,5R)-5-(4-aminopyrrolo[2,1-f][1,2,4]triazin-7-yl)-5-cyano-3,4-dihydroxytetrahydrofuran-2-yl)methoxy)(phenoxy)phosphoryl)amino)propanoate] |  | 3200 nM |  |  |
| CC(C)(C)C(=O)SCCOP(=O)(OCCSC(=O)C(C)(C)C)OC[C@H]1O[C@@](C#N)(c2ccc3c(N)ncnn23)[C@H](O)[C@@H]1O [Compound 15] | 630 nM | 520 nM | 501 nM | EC50 [2]: 271 nM |
| CCOC(=O)[C@H](Cc1ccccc1)NP(=O)(OC[C@H]1O[C@@](C#N)(c2ccc3c(N)ncnn23)[C@H](O)[C@@H]1O)Oc1ccccc1 (stereo partly drawn) [Compound 21, (2S)-ethyl 2-(((((2R,3S,4R,5R)-5-(4-aminopyrrolo[2,1-f][1,2,4]triazin-7-yl)-5-cyano-3,4-dihydroxytetrahydrofuran-2-yl)methoxy)(phenoxy)phosphoryl)amino)-3-phenylpropanoate] | 905 nM |  | 270 nM | EC50 [1]: 473 nM |
| CCOC(=O)[C@@H](NP(=O)(OC[C@H]1O[C@@](C#N)(c2ccc3c(N)ncnn23)[C@H](O)[C@@H]1O)Oc1ccccc1)C(C)C (stereo partly drawn) [Compound 22, (2S)-ethyl 2-(((((2R,3S,4R,5R)-5-(4-aminopyrrolo[2,1-f][1,2,4]triazin-7-yl)-5-cyano-3,4-dihydroxytetrahydrofuran-2-yl)methoxy)(phenoxy)phosphoryl)amino)-3-methylbutanoate] |  | 11600 nM |  |  |
| C[C@H](NP(=O)(OC[C@H]1O[C@@](C#N)(c2ccc3c(N)ncnn23)[C@H](O)[C@@H]1O)Oc1ccccc1)C(=O)OC1CCC1 (stereo partly drawn) [Compound 24, (2S)-cyclobutyl 2-(((((2R,3S,4R,5R)-5-(4-aminopyrrolo[2,1-f][1,2,4]triazin-7-yl)-5-cyano-3,4-dihydroxytetrahydrofuran-2-yl)methoxy)(phenoxy)phosphoryl)amino)propanoate] |  | 785 nM |  |  |
| CC(C)OC(=O)[C@H](Cc1ccccc1)NP(=O)(OC[C@H]1O[C@@](C#N)(c2ccc3c(N)ncnn23)[C@H](O)[C@@H]1O)Oc1ccccc1 (stereo partly drawn) [Compound 25, (2S)-isopropyl 2-(((((2R,3S,4R,5R)-5-(4-aminopyrrolo[2,1-f][1,2,4]triazin-7-yl)-5-cyano-3,4-dihydroxytetrahydrofuran-2-yl)methoxy)(phenoxy)phosphoryl)amino)-3-phenylpropanoate] |  | 6720 nM |  |  |
| COC(=O)[C@H](C)N[P@](=O)(OC[C@H]1O[C@@](C#N)(c2ccc3c(N)ncnn23)[C@H](O)[C@@H]1O)Oc1ccccc1 [Compound 26, (S)-methyl 2-(((S)-(((2R,3S,4R,5R)-5-(4-aminopyrrolo[2,1-f][1,2,4]triazin-7-yl)-5-cyano-3,4-dihydroxytetrahydrofuran-2-yl)methoxy)(phenoxy)phosphoryl)amino)propanoate] | 283 nM | 970 nM | 1180 nM | EC50 [3]: 1100 nM; EC50 [4]: 1290 nM |
| C[C@H](N[P@](=O)(OC[C@H]1O[C@@](C#N)(c2ccc3c(N)ncnn23)[C@H](O)[C@@H]1O)Oc1ccccc1)C(=O)OCC(C)(C)C [Compound 27, (S)-neopentyl 2-(((S)-(((2R,3S,4R,5R)-5-(4-aminopyrrolo[2,1-f][1,2,4]triazin-7-yl)-5-cyano-3,4-dihydroxytetrahydrofuran-2-yl)methoxy)(phenoxy)phosphoryl)amino) propanoate] | 82 nM | 182 nM |  |  |
| C[C@H](NP(=O)(OC[C@H]1O[C@@](C#N)(c2ccc3c(N)ncnn23)[C@H](O)[C@@H]1O)Oc1ccccc1)C(=O)OC1CCCC1 (stereo partly drawn) [Compound 28, (2S)-cyclopentyl 2-(((((2R,3S,4R,5R)-5-(4-aminopyrrolo[2,1-f][1,2,4]triazin-7-yl)-5-cyano-3,4-dihydroxytetrahydrofuran-2-yl)methoxy)(phenoxy)phosphoryl)amino) propanoate] | 102 nM | 975 nM | 120 nM | EC50 [3]: 682 nM |
| C[C@H](NP(=O)(OC[C@H]1O[C@@](C#N)(c2ccc3c(N)ncnn23)[C@H](O)[C@@H]1O)Oc1ccccc1)C(=O)OC1CCCCC1 (stereo partly drawn) [Compound 29, (2S)-cyclohexyl 2-(((((2R,3S,4R,5R)-5-(4-aminopyrrolo[2,1-f][1,2,4]triazin-7-yl)-5-cyano-3,4-dihydroxytetrahydrofuran-2-yl)methoxy)(phenoxy)phosphoryl)amino) propanoate] |  | 275 nM |  |  |
| CCOC(=O)C(C)(C)NP(=O)(OC[C@H]1O[C@@](C#N)(c2ccc3c(N)ncnn23)[C@H](O)[C@@H]1O)Oc1ccccc1 (stereo partly drawn) [Compound 30, ethyl 2-(((((2R,3S,4R,5R)-5-(4-aminopyrrolo[2,1-f][1,2,4]triazin-7-yl)-5-cyano-3,4-dihydroxytetrahydrofuran-2-yl)methoxy)(phenoxy)phosphoryl)amino)-2-methylpropanoate] | 11100 nM | > 20000 nM | 1230 nM |  |
| CC(C)OC(=O)C(C)(C)NP(=O)(OC[C@H]1O[C@@](C#N)(c2ccc3c(N)ncnn23)[C@H](O)[C@@H]1O)Oc1ccccc1 (stereo partly drawn) [Compound 31, Isopropyl 2-(((((2R,3S,4R,5R)-5-(4-aminopyrrolo[2,1-f][1,2,4]triazin-7-yl)-5-cyano-3,4-dihydroxytetrahydrofuran-2-yl)methoxy)(phenoxy)phosphoryl)amino)-2-methylpropanoate] | 11100 nM | > 20000 nM | 1230 nM | EC50 [3]: > 10000 nM |
